Source: PubChem BioAssay (NCI)
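Test compounds were applied to cells in 96-well plates for 48 hours at 5 doses. GI50 is the concentration that inhibits growth by half. TGI denotes the concentration required for complete inhibition of growth.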

Legend:
Test in all cases: NCI anticancer screen, dose series, 48 h
[1] = test system: 786-0 renal
[2] = test system: A498 renal
[3] = test system: A549 NSCLC
[4] = test system: ACHN renal
[5] = test system: BT-549 breast
[6] = test system: CAKI-1 renal
[7] = test system: CCRF-CEM leukemia
[8] = test system: COLO 205 colon
[9] = test system: DU-145 prostate
[10] = test system: EKVX NSCLC
[11] = test system: HCC-2998 colon
[12] = test system: HCT-116 colon
[13] = test system: HCT-15 colon
[14] = test system: HL-60(TB) leukemia
[15] = test system: HOP-62 NSCLC
[16] = test system: HOP-92 NSCLC
[17] = test system: HS 578T breast
[18] = test system: HT29 colon
[19] = test system: IGROV1 ovarian
[20] = test system: K-562 leukemia
[21] = test system: KM12 colon
[22] = test system: LOX IMVI melanoma
[23] = test system: M14 melanoma
[24] = test system: MALME-3M melanoma
[25] = test system: MCF7 breast
[26] = test system: MDA-MB-231 breast
[27] = test system: MDA-MB-435
[28] = test system: MDA-MB-468 breast
[29] = test system: MOLT-4 leukemia
[30] = test system: NCI-H226 lung
[31] = test system: NCI-H23 lung
[32] = test system: NCI-H460 lung
[33] = test system: NCI-H522 lung
[34] = test system: NCI/ADR-RES ovarian
[35] = test system: OVCAR-3 ovarian
[36] = test system: OVCAR-4 ovarian
[37] = test system: OVCAR-5 ovarian
[38] = test system: OVCAR-8 ovarian
[39] = test system: PC-3 prostate
[40] = test system: RPMI-8226 leukemia
[41] = test system: RXF 393 renal
[42] = test system: SF-268 CNS
[43] = test system: SF-295 CNS
[44] = test system: SF-539 CNS
[45] = test system: SK-MEL-2 melanoma
[46] = test system: SK-MEL-28 melanoma
[47] = test system: SK-MEL-5 melanoma
[48] = test system: SK-OV-3 ovarian
[49] = test system: SN12C renal
[50] = test system: SNB-19 CNS
[51] = test system: SNB-75 CNS
[52] = test system: SW-620 colon
[53] = test system: T-47D breast
[54] = test system: TK-10 renal
[55] = test system: U251 CNS
[56] = test system: UACC-257 melanoma
[57] = test system: UACC-62 melanoma
[58] = test system: UO-31 renal

## Cn1cc(-c2cc(N)n3nc(-c4cn(C)c5ncc(Br)cc45)cc3n2)c2cc(Br)cnc21
[1]
  GI50: 1.77 µM
  TGI: 3.46 µM
[2]
  GI50: > 100 µM
  TGI: > 100 µM
[3]
  GI50: 2.07 µM
  TGI: 4.97 µM
[4]
  GI50: 1.96 µM
  TGI: 3.72 µM
[5]
  GI50: 3.38 µM
  TGI: 14.1 µM
[6]
  GI50: 3.68 µM
  TGI: 15.4 µM
[7]
  GI50: 1.43 µM
  TGI: 3.72 µM
[8]
  GI50: 4.29 µM
  TGI: 31.8 µM
[9]
  GI50: 2.54 µM
  TGI: 6.77 µM
[10]
  GI50: 2.18 µM
  TGI: 8.92 µM
[11]
  GI50: 1.73 µM
  TGI: 3.44 µM
[12]
  GI50: 1.72 µM
  TGI: 3.3 µM
[13]
  GI50: 1.59 µM
  TGI: 3.24 µM
[14]
  GI50: 2 µM
  TGI: 4.94 µM
[15]
  GI50: 2.36 µM
  TGI: 6.63 µM
[16]
  GI50: 1.71 µM
  TGI: 6.42 µM
[17]
  GI50: 3.19 µM
  TGI: 15.7 µM
[18]
  GI50: 1.8 µM
  TGI: 3.44 µM
[19]
  GI50: 4.65 µM
  TGI: 18.5 µM
[20]
  GI50: 2.34 µM
  TGI: 8.45 µM
[21]
  GI50: 1.83 µM
  TGI: 5.81 µM
[22]
  GI50: 1.59 µM
  TGI: 2.96 µM
[23]
  GI50: 1.65 µM
  TGI: 3.16 µM
[24]
  GI50: 1.93 µM
  TGI: 3.49 µM
[25]
  GI50: 1.72 µM
  TGI: 4.12 µM
[26]
  GI50: 2.59 µM
  TGI: 9.79 µM
[27]
  GI50: 1.95 µM
  TGI: 4.29 µM
[28]
  GI50: 1.54 µM
  TGI: 2.95 µM
[29]
  GI50: 1.53 µM
  TGI: 4.37 µM
[30]
  GI50: 8.32 µM
  TGI: 26.4 µM
[31]
  GI50: 1.92 µM
  TGI: 3.76 µM
[32]
  GI50: 1.91 µM
  TGI: 3.89 µM
[33]
  GI50: 2.27 µM
  TGI: 5.52 µM
[34]
  GI50: 2.04 µM
  TGI: 4.7 µM
[35]
  GI50: 1.72 µM
  TGI: 3.21 µM
[36]
  GI50: 2.11 µM
  TGI: 4.57 µM
[37]
  GI50: 10.5 µM
  TGI: 33.9 µM
[38]
  GI50: 2.49 µM
  TGI: 6.67 µM
[39]
  GI50: 2.49 µM
  TGI: 8.41 µM
[40]
  GI50: 2.23 µM
  TGI: 5.87 µM
[41]
  GI50: 2.62 µM
  TGI: 6.9 µM
[42]
  GI50: 7.52 µM
  TGI: 38 µM
[43]
  GI50: 1.86 µM
  TGI: 4.02 µM
[44]
  GI50: 1.71 µM
  TGI: 3.18 µM
[45]
  GI50: 2.01 µM
  TGI: 4.4 µM
[46]
  GI50: 1.77 µM
  TGI: 3.35 µM
[47]
  GI50: 3.95 µM
  TGI: 16.8 µM
[48]
  GI50: 19.1 µM
  TGI: 36.4 µM
[49]
  GI50: 10.6 µM
  TGI: 34.9 µM
[50]
  GI50: 1.95 µM
  TGI: 4.05 µM
[51]
  GI50: 8.48 µM
  TGI: 26.3 µM
[52]
  GI50: 1.77 µM
  TGI: 3.59 µM
[53]
  GI50: 2.35 µM
  TGI: 9.43 µM
[54]
  GI50: 1.79 µM
  TGI: 4.03 µM
[55]
  GI50: 1.93 µM
  TGI: 3.89 µM
[56]
  GI50: 2.28 µM
  TGI: 5.33 µM
[57]
  GI50: 1.58 µM
  TGI: 3.03 µM
[58]
  GI50: 6.81 µM
  TGI: 22.1 µM
